Reference: patent publication US20170157010A1, “METHODS AND COMPOSITIONS FOR TREATMENT OF DISORDERS ASSOCIATED WITH DAMAGE INDUCED BY FREE RADICALS” (Glycadia, Inc., priority 2015, published 2017)
Values joined by “and” are separate entries in the source; they are usually repeats but may differ in a detail not shown here. Equal entries are not always repeated.

Experiments:
[1] = ABTS radical cation free radical scavenging (bleaching of absorbance at 734 nm); type: biochemical; conditions: ABTSY+ 450 micromolar, pH 7.4
Source text: A radical cation of 2,2′-azino-bis(3-ethylbenzthiazoline-6-sulfonic acid) diammonium salt (ABTS) was generated by oxidation with manganese dioxide, forming the blue-green radical cation ABTSY+ with spectrophotometric absorbance at 734 nanommeters (nm). The reaction was initiated by the addition of 23CPPA (5-40 micromolar) to ABTSY+ (450 micromolar) in phosphate buffer (75 millimolar, pH 7.4) and decay of the blue-green radical cation absorbance was monitored over time. Absorbance profiles were obtained with incubation in phosphate buffer (75 millimolar, pH 7.4) as control. The reaction of anti-oxidants with stable free radicals such as ABTSY+ that is generated from ABTS measures their free radical scavenging capacities.

[2] = Ultraviolet absorption spectrum; type: physicochemical
Source text: Ultraviolet (UV) absorption peaks of 2-(3-chlorophenylamino)phenylacetic acid at 211 and 283 nm, encompassing wavelength range of medium wave UVB (315-280 nm) and short wave UVC (280-190 nm).

[3] = Brain penetration following oral administration in rats (HPLC/MS/MS); type: in vivo; conditions: rat; sodium salt by gavage 15 and 60 mg/kg
Protocol: Rat hemi brains were obtained 1,4 and 6 hours after administration by gavage of the sodium salt of 23CPPA at doses of 15 and 60 mg/kg and were mixed with two equivalents of water and homogenized. The resulting homogenate was extracted with acetonitrile containing internal standard and concentrations of the compound were analyzed by high pressure liquid chromatography/two stage mass spectrometry (HPLC/MS/MS). Plasma samples also were collected from the same rats at these time points for measurement of plasma concentrations of the compound.

O=C(O)Cc1ccccc1Nc1cccc(Cl)c1 [23CPPA, 2-[(3-chlorophenyl)amino] phenylacetic acid]
Decay (% of starting absorbance) ([1]; 23CPPA 5 micromolar, 1 minute): 74 % of starting absorbance
Decay (% of starting absorbance) ([1]; 23CPPA 5 micromolar, 2 minutes): 72 % of starting absorbance
Decay (% of starting absorbance) ([1]; 23CPPA 5 micromolar, 3 minutes): 69 % of starting absorbance
Decay (% of starting absorbance) ([1]; 23CPPA 5 micromolar, 4 minutes): 67 % of starting absorbance
Decay (% of starting absorbance) ([1]; 23CPPA 5 micromolar, 5 minutes): 65 % of starting absorbance
Decay (% of starting absorbance) ([1]; 23CPPA 5 micromolar, 6 minutes): 63 % of starting absorbance
Decay (% of starting absorbance) ([1]; 23CPPA 5 micromolar, 7 minutes): 61 % of starting absorbance
Decay (% of starting absorbance) ([1]; 23CPPA 5 micromolar, 8 minutes): 60 % of starting absorbance
Decay (% of starting absorbance) ([1]; 23CPPA 5 micromolar, 9 minutes): 58 % of starting absorbance
Decay (% of starting absorbance) ([1]; 23CPPA 5 micromolar, 10 minutes): 56 % of starting absorbance
Decay (% of starting absorbance) ([1]; 23CPPA 5 micromolar, 11 minutes): 55 % of starting absorbance
Decay (% of starting absorbance) ([1]; 23CPPA 5 micromolar, 12 minutes): 53 % of starting absorbance
Decay (% of starting absorbance) ([1]; 23CPPA 5 micromolar, 13 minutes): 52 % of starting absorbance
Decay (% of starting absorbance) ([1]; 23CPPA 5 micromolar, 14 minutes): 51 % of starting absorbance
Decay (% of starting absorbance) ([1]; 23CPPA 5 micromolar, 15 minutes): 49 % of starting absorbance
Decay (% of starting absorbance) ([1]; 23CPPA 10 micromolar, 1 minute): 57 % of starting absorbance
Decay (% of starting absorbance) ([1]; 23CPPA 10 micromolar, 2 minutes): 56 % of starting absorbance
Decay (% of starting absorbance) ([1]; 23CPPA 10 micromolar, 3 minutes): 53 % of starting absorbance
Decay (% of starting absorbance) ([1]; 23CPPA 10 micromolar, 4 minutes): 52 % of starting absorbance
Decay (% of starting absorbance) ([1]; 23CPPA 10 micromolar, 5 minutes): 51 % of starting absorbance
Decay (% of starting absorbance) ([1]; 23CPPA 10 micromolar, 6 minutes): 50 % of starting absorbance
Decay (% of starting absorbance) ([1]; 23CPPA 10 micromolar, 7 minutes): 48 % of starting absorbance
Decay (% of starting absorbance) ([1]; 23CPPA 10 micromolar, 8 minutes): 47 % of starting absorbance
Decay (% of starting absorbance) ([1]; 23CPPA 10 micromolar, 9 minutes): 46 % of starting absorbance
Decay (% of starting absorbance) ([1]; 23CPPA 10 micromolar, 10 minutes): 44 % of starting absorbance
Decay (% of starting absorbance) ([1]; 23CPPA 10 micromolar, 11 minutes): 44 % of starting absorbance
Decay (% of starting absorbance) ([1]; 23CPPA 10 micromolar, 12 minutes): 43 % of starting absorbance
Decay (% of starting absorbance) ([1]; 23CPPA 10 micromolar, 13 minutes): 43 % of starting absorbance
Decay (% of starting absorbance) ([1]; 23CPPA 10 micromolar, 14 minutes): 42 % of starting absorbance
Decay (% of starting absorbance) ([1]; 23CPPA 10 micromolar, 15 minutes): 42 % of starting absorbance
Decay (% of starting absorbance) ([1]; 23CPPA 20 micromolar, 1 minute): 37 % of starting absorbance
Decay (% of starting absorbance) ([1]; 23CPPA 20 micromolar, 2 minutes): 27 % of starting absorbance
Decay (% of starting absorbance) ([1]; 23CPPA 20 micromolar, 3 minutes): 23 % of starting absorbance
Decay (% of starting absorbance) ([1]; 23CPPA 20 micromolar, 4 minutes): 20 % of starting absorbance
Decay (% of starting absorbance) ([1]; 23CPPA 20 micromolar, 5 minutes): 17 % of starting absorbance
Decay (% of starting absorbance) ([1]; 23CPPA 20 micromolar, 6 minutes): 14 % of starting absorbance
Decay (% of starting absorbance) ([1]; 23CPPA 20 micromolar, 7 minutes): 13 % of starting absorbance
Decay (% of starting absorbance) ([1]; 23CPPA 20 micromolar, 8 minutes): 12 % of starting absorbance
Decay (% of starting absorbance) ([1]; 23CPPA 20 micromolar, 9 minutes): 12 % of starting absorbance
Decay (% of starting absorbance) ([1]; 23CPPA 20 micromolar, 10 minutes): 11 % of starting absorbance
Decay (% of starting absorbance) ([1]; 23CPPA 20 micromolar, 11 minutes): 10 % of starting absorbance
Decay (% of starting absorbance) ([1]; 23CPPA 20 micromolar, 12 minutes): 10 % of starting absorbance
Decay (% of starting absorbance) ([1]; 23CPPA 20 micromolar, 13 minutes): 9 % of starting absorbance
Decay (% of starting absorbance) ([1]; 23CPPA 20 micromolar, 14 minutes): 9 % of starting absorbance
Decay (% of starting absorbance) ([1]; 23CPPA 20 micromolar, 15 minutes): 9 % of starting absorbance
Decay (% of starting absorbance) ([1]; 23CPPA 40 micromolar, 1 minute): 20 % of starting absorbance
Decay (% of starting absorbance) ([1]; 23CPPA 40 micromolar, 2 minutes): 20 % of starting absorbance
Decay (% of starting absorbance) ([1]; 23CPPA 40 micromolar, 3 minutes): 3 % of starting absorbance
Decay (% of starting absorbance) ([1]; 23CPPA 40 micromolar, 4 minutes): 1 % of starting absorbance
Decay (% of starting absorbance) ([1]; 23CPPA 40 micromolar, 5 minutes): 0 % of starting absorbance
Decay (% of starting absorbance) ([1]; 23CPPA 40 micromolar, 6 minutes): 0 % of starting absorbance
Decay (% of starting absorbance) ([1]; 23CPPA 40 micromolar, 7 minutes): 0 % of starting absorbance
Decay (% of starting absorbance) ([1]; 23CPPA 40 micromolar, 8 minutes): 0 % of starting absorbance
Decay (% of starting absorbance) ([1]; 23CPPA 40 micromolar, 9 minutes): 0 % of starting absorbance
Decay (% of starting absorbance) ([1]; 23CPPA 40 micromolar, 10 minutes): 0 % of starting absorbance
Decay (% of starting absorbance) ([1]; 23CPPA 40 micromolar, 11 minutes): 0 % of starting absorbance
Decay (% of starting absorbance) ([1]; 23CPPA 40 micromolar, 12 minutes): 0 % of starting absorbance
Decay (% of starting absorbance) ([1]; 23CPPA 40 micromolar, 13 minutes): 0 % of starting absorbance
Decay (% of starting absorbance) ([1]; 23CPPA 40 micromolar, 14 minutes): 0 % of starting absorbance
Decay (% of starting absorbance) ([1]; 23CPPA 40 micromolar, 15 minutes): 0 % of starting absorbance
Ultraviolet (UV) absorption peaks [2]: 211 nm and 283 nm
Absorbance ([2]; wavelength 190 nm): 0.5
Absorbance ([2]; wavelength 195 nm): 0.75
Absorbance ([2]; wavelength 197 nm): 1.0
Absorbance ([2]; wavelength 198 nm): 1.25
Absorbance ([2]; wavelength 199 nm): 1.5
Absorbance ([2]; wavelength 205 nm): 2.0
Absorbance ([2]; wavelength 208 nm): 2.1
Absorbance ([2]; wavelength 211 nm): 2.2
Absorbance ([2]; wavelength 212 nm): 2.0
Absorbance ([2]; wavelength 220 nm): 1.25
Absorbance ([2]; wavelength 222 nm): 1.0
Absorbance ([2]; wavelength 232 nm): 0.5
Absorbance ([2]; wavelength 235 nm): 0.45
Absorbance ([2]; wavelength 239 nm): 0.43
Absorbance ([2]; wavelength 243 nm): 0.43
Absorbance ([2]; wavelength 249 nm): 0.43
Absorbance ([2]; wavelength 252 nm): 0.43
Absorbance ([2]; wavelength 256 nm): 0.43
Absorbance ([2]; wavelength 260 nm): 0.5
Absorbance ([2]; wavelength 272 nm): 0.75
Absorbance ([2]; wavelength 283 nm): 0.93
Absorbance ([2]; wavelength 291 nm): 0.75
Absorbance ([2]; wavelength 300 nm): 0.5
Absorbance ([2]; wavelength 308 nm): 0.25
Absorbance ([2]; wavelength 325 nm): 0
Dose dependence of brain concentrations [3]: dose proportional
